Read-outs that look alike come from different tables or passages of the source.

One experiment has as its system Karpas422 cells. In words: Tumor cell growth inhibition assay. The format is cell-based. To be noted: Homo sapiens, KARPAS-422, 144 h, read-out: GI Karpas EC50. In outline: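 Karpas422 cells were dosed over a 10-point concentration range (top 5 μM) and grown 6 days at 37 °C, 5% CO2, in Alpha-MEM with 10% FBS. Viability was read as ATPlite luminescence.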
Experiment [1] has as its system BCL6 reporter construct in SuDHL4-3×BCL6-TK-Luc cells. In words: Cell-based luciferase assay (BCL6 reporter). The note with it: 48 h, read-out: Luc IC50. In outline: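 SuDHL4 cells stably carrying a 3×BCL6-site TK-promoter firefly luciferase reporter, 15,000 cells/well, dosed over 10 concentrations (top 10 μM) and cultured two days at 37° C, 5% CO2. Luciferase luminescence read after room-temperature equilibration with neolite reagent.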

Experiment [2] deals with BCL6 BTB domain (biotin-thrombin-BCL6 amino acids 1-129) (Homo sapiens (Human), UniProt P41182). In words: Surface Plasmon Resonance (SPR) assay. The experiment is classed as binding. To be noted: Biacore T200, single cycle kinetic analysis. As to the method: Surface Plasmon Resonance (SPR) Assay
SPR studies were performed using a Biacore™ T200 instrument (GE Health Sciences Inc.). […] The Biacore flow rate was set at 100 μl/min. […] Curve fitting and KD calculations were performed with the Biacore T200 Evaluation software (GE Health Sciences Inc).

[3] abbreviates: Karpas422 cells, six days, ATPlite.
The mark [4] stands for this setting: SuDHL4-3×BCL6-TK-Luc cells, two days.

Usually EC50 stands for the concentration that produces a half-maximal response. One may read the IC50 as the concentration that inhibits the measured activity by half. In general, Kd refers to the equilibrium constant for the complex coming apart. As to `NC(=O)c1cc(-c2cn(CC(=O)Nc3cc(N4CCCC4)nc(F)c3Cl)c3nc4n(c(=O)c23)CCC4)cc(F)c1O` [I-76, 5-(1-(2-((3-chloro-2-fluoro-6-(pyrrolidin-1-yl)pyridin-4-yl)amino)-2-oxoethyl)-4-oxo-4,6,7,8-tetrahydro-1H-dipyrrolo[1,2-a:2′,3′-d]pyrimidin-3-yl)-3-fluoro-2-hydroxy-benzamide], the concentration for a half-maximal effect (EC50) in the experiment on Karpas422 cells (setting [3]) was determined as 0.0928 µM. Besides, in experiment [1] (setting [4]), the IC50 came out at 0.0851 µM. Moreover, binding in experiment [2] was characterised by a dissociation constant (Kd) of 0.00302 µM.
As for `COc1c(-c2cn(CC(=O)Nc3cc(N4CCN(C)C[C@@H]4C)nc(F)c3Cl)c3nc4n(c(=O)c23)CCC4)cc(C(N)=O)c(O)c1F` [I-91, (S)-5-(1-(2-((3-chloro-6-(2,4-dimethylpipera-zin-1-yl)-2-fluoro-pyridin-4-yl)amino)-2-oxoethyl)-4-oxo-4,6,7,8-tetrahydro-1H-dipyrrolo [1,2-a:2′,3′-d]pyrimidin-3-yl)-3-fluoro-2-hydroxy-4-methoxy-benzamide], the EC50 in the experiment on Karpas422 cells amounted to 1.79 µM. For the same compound, the IC50 in experiment [1] is 1.03 µM. In experiment [2], this compound registered a Kd of 0.0947 µM.
Turning to `C[C@H]1CNCCN1c1cc(NC(=O)Cn2cc(-c3cc(C(N)=O)c(O)c(F)c3F)c3c(=O)n4c(nc32)CCC4)c(Cl)c(F)n1` [I-53, (S)-5-(1-(2-((3-chloro-2-fluoro-6-(2-methyl-piperazin-1-yl)pyridin-4-yl)amino)-2-oxo-ethyl)-4-oxo-4,6,7,8-tetrahydro-1H-dipyrrolo [1,2-a:2′,3′-d]pyrimidin-3-yl)-3,4-difluoro-2-hydroxybenzamide], in the experiment on Karpas422 cells (setting [3]), the EC50 was 0.646 µM. The IC50 in experiment [1] (setting [4]) is 0.504 µM. The same compound gave a Kd in experiment [2] of 0.00583 µM.
The corresponding values for `C[C@H]1CN(C2COC2)CCN1c1cc(NC(=O)Cn2cc(-c3cc(C(N)=O)c(O)c(F)c3F)c3c(=O)n4c(nc32)CCC4)c(Cl)c(F)n1` [I-20, (S)-5-(1-(2-((3-chloro-2-fluoro-6-(2-methyl-4-(oxetan-3-yl)piperazin-1-yl)pyridin-4-yl)amino)-2-oxoethyl)-4-oxo-4,6,7,8-tetrahydro-1H-dipyrrolo[1,2-a:2′,3′-d]pyrimidin-3-yl)-3,4-difluoro-2-hydroxy-benzamide] are 0.0576 µM, 0.0612 µM and 0.00396 µM.
Turning to `COCCN1CCN(c2cc(NC(=O)Cn3cc(-c4cc(C(N)=O)c(O)c(F)c4F)c4c(=O)n5c(nc43)CCC5)c(Cl)c(F)n2)[C@@H](C)C1` [I-25, (S)-5-(1-(2-((3-chloro-2-fluoro-6-(4-(2-methoxyethyl)-2-methyl-piperazin-1-yl)pyridin-4-yl)amino)-2-oxoethyl)-4-oxo-4,6,7,8-tetrahydro-1H-dipyrrolo[1,2-a:2′,3′-d]pyrimidin-3-yl)-3,4-difluoro-2-hydroxy-benzamide], in the experiment on Karpas422 cells (setting [3]), the EC50 amounted to 0.0751 µM. Moreover, the IC50 in experiment [1] (setting [4]) came to 0.0787 µM. In addition, the equilibrium dissociation constant (Kd) in experiment [2] stood at 0.00564 µM.
The corresponding values for `C[C@H]1COCCN1c1cc(NC(=O)Cn2cc(-c3cc(C(N)=O)c(O)c(F)c3F)c3c(=O)n4c(nc32)CCCCC4)c(Cl)c(F)n1` [I-51, (S)-5-(1-(2-((3-chloro-2-fluoro-6-(3-methyl-morpholino)pyridin-4-yl)amino)-2-oxoethyl)-4-oxo-4,6,7,8,9,10-hexahydro-1H-pyrrolo [2′,3′:4,5]pyrimido [1,2-a]azepin-3-yl)-3,4-difluoro-2-hydroxy-benzamide] are 0.974 µM, 3.05 µM and 0.0891 µM.
The corresponding values for `C[C@H]1COCCN1c1cc(NC(=O)Cn2cc(-c3cc(C(N)=O)c(O)c(F)c3F)c3c(=O)n4c(nc32)CCCC4)c(Cl)c(F)n1` [I-42, (S)-5-(1-(2-((3-chloro-2-fluoro-6-(3-methyl-morpholino)pyridin-4-yl)amino)-2-oxoethyl)-4-oxo-1,4,6,7,8,9-hexahydropyrido [1,2-a]pyrrolo[2,3-d]pyrimidin-3-yl)-3,4-difluoro-2-hydroxy-benzamide] are 0.331 µM, 0.407 µM and 0.029 µM.
As for `C[C@H]1COCCN1c1cc(NC(=O)Cn2cc(-c3cc(C(N)=O)c(O)c4c3OCO4)c3c(=O)n4c(nc32)CCC4)c(Cl)cn1` [I-85, (S)-7-(1-(2-((5-chloro-2-(3-methylmorpholino)pyridin-4-yl)amino)-2-oxoethyl)-4-oxo-4,6,7,8-tetrahydro-1H-dipyrrolo[1,2-a:2′,3′-d]pyrimidin-3-yl)-4-hydroxybenzo[d][1,3] dioxole-5-carboxamide], in the experiment on Karpas422 cells (setting [3]), the half-maximal effective concentration (EC50) was 0.0296 µM. Also, the concentration for half-maximal inhibition (IC50) in experiment [1] (setting [4]) came to 0.0154 µM. The compound further showed a Kd in experiment [2] of 0.00161 µM.
The corresponding values for `CC1Cc2nc3c(c(-c4cc(C(N)=O)c(O)c5c4OCO5)cn3CC(=O)Nc3cc(N4CCOC[C@@H]4C)ncc3Cl)c(=O)n2C1` (stereo partly drawn) [I-88, 7-(1-(2-((5-chloro-2-((S)-3-methylmorpho-lino)pyridin-4-yl)amino)-2-oxoethyl)-7-methyl-4-oxo-4,6,7,8-tetrahydro-1H-dipyrrolo[1,2-a:2′,3′-d]pyrimidin-3-yl)-4-hydroxybenzo[d][1,3] dioxole-5-carboxamide] are 0.0176 µM, 0.0394 µM and 0.00214 µM.
The corresponding values for `CN1C[C@H]2CC[C@@H](C1)N2c1cc(NC(=O)Cn2cc(-c3cc(C(N)=O)c(O)c(F)c3F)c3c(=O)n4c(nc32)CCC4)c(Cl)cn1` [I-56, 5-(1-(2-((5-chloro-2-((1R,5S)-3-methyl-3,8-diazabicyclo[3.2.1]octan-8-yl)pyridin-4-yl)amino)-2-oxoethyl)-4-oxo-4,6,7,8-tetrahydro-1H-dipyrrolo[1,2-a:2′,3′-d]pyrimidin-3-yl)-3,4-difluoro-2-hydroxy-benzamide] are 0.586 µM, 0.684 µM and 0.0387 µM.
The corresponding values for `CN(C)c1cc(NC(=O)Cn2cc(-c3cc(C(N)=O)c(O)c(F)c3F)c3c(=O)n4c(nc32)CCC4)c(Cl)c(F)n1` [I-22, 5-(1-(2-((3-chloro-6-(dimethylamino)-2-fluoropyridin-4-yl)amino)-2-oxoethyl)-4-oxo-4,6,7,8-tetrahydro-1H-dipyrrolo [1,2-a:2′,3′-d]pyrimidin-3-yl)-3,4-difluoro-2-hydroxybenzamide] are 0.146 µM, 0.274 µM and 0.0118 µM.
Take `C[C@H](C1CC1)N1CCN(c2cc(NC(=O)Cn3cc(-c4cc(C(N)=O)c(O)c(F)c4F)c4c(=O)n5c(nc43)CCC5)c(Cl)c(F)n2)[C@@H](C)C1` [I-39, 5-(1-(2-((3-chloro-6-((S)-4-((R)-1-cyclo-propylethyl)-2-methyl-piperazin-1-yl)-2-fluoropyridin-4-yl)amino)-2-oxoethyl)-4-oxo-4,6,7,8-tetrahydro-1H-dipyrrolo[1,2-a:2′,3′-d]pyrimidin-3-yl)-3,4-difluoro-2-hydroxy-benzamide]: in the experiment on Karpas422 cells (setting [3]), the 50% effective concentration (EC50) was determined as 0.384 µM. Besides, the IC50 in experiment [1] (setting [4]) came to 0.21 µM. Besides, the affinity in experiment [2], expressed as Kd, was 0.0349 µM.
In the case of `C[C@H]1CN(C)CCN1c1cc(NC(=O)Cn2cc(-c3cc(Cl)c(O)c(C(N)=O)c3)c3c(=O)n4c(nc32)CCC4)c(Cl)c(F)n1` [I-61, (S)-3-chloro-5-(1-(2-((3-chloro-6-(2,4-dimethylpiperazin-1-yl)-2-fluoropyridin-4-yl)amino)-2-oxoethyl)-4-oxo-4,6,7,8-tetrahydro-1H-dipyrrolo[1,2-a:2′,3′-d]pyrimidin-3-yl)-2-hydroxybenzamide], in the experiment on Karpas422 cells (setting [3]), the EC50 was determined as 0.0222 µM. In addition, the IC50 in experiment [1] (setting [4]) was 0.0417 µM. In experiment [2], this compound gave a dissociation constant Kd of 0.00371 µM.
Take `NC(=O)c1cc(-c2cn(CC(=O)Nc3cc(N4CCOCC4)c(F)cc3Cl)c3nc4n(c(=O)c23)CCC4)c(F)c(F)c1O` [I-30, 5-(1-(2-((2-chloro-4-fluoro-5-morpholino-phenyl)amino)-2-oxo-ethyl)-4-oxo-4,6,7,8-tetrahydro-1H-dipyrrolo [1,2-a:2′,3′-d]pyrimidin-3-yl)-3,4-difluoro-2-hydroxybenzamide]: the concentration for a half-maximal effect (EC50) with Karpas422 cells turned out to be 0.98 µM. Moreover, the IC50 in experiment [1] amounted to 1.11 µM. Further, the Kd in experiment [2] was 0.106 µM.
Consider `CN(C)c1cc(NC(=O)Cn2cc(-c3cc(F)c(O)c(C(N)=O)c3)c3c(=O)n4c(nc32)CCC4)c(Cl)c(F)n1` [I-80, 5-(1-(2-((3-chloro-6-(dimethylamino)-2-fluoropyridin-4-yl)amino)-2-oxoethyl)-4-oxo-4,6,7,8-tetrahydro-1H-dipyrrolo[1,2-a:2′,3′-d]pyrimidin-3-yl)-3-fluoro-2-hydroxy-benzamide], for which, in the experiment on Karpas422 cells (setting [3]), the concentration giving a half-maximal response (EC50) was 0.0701 µM. Also, the concentration for half-maximal inhibition (IC50) in experiment [1] (setting [4]) turned out to be 0.0872 µM. This compound also had a Kd in experiment [2] of 0.00383 µM.
The corresponding values for `CCN1CCN(c2cc(NC(=O)Cn3cc(-c4cc(C(N)=O)c(O)c(Cl)c4F)c4c(=O)n5c(nc43)CCC5)c(Cl)c(F)n2)[C@@H](C)C1` [I-28, (S)-3-chloro-5-(1-(2-((3-chloro-6-(4-ethyl-2-methylpiperazin-1-yl)-2-fluoropyridin-4-yl)amino)-2-oxoethyl)-4-oxo-4,6,7,8-tetra-hydro-1H-dipyrrolo [1,2-a:2′,3′-d]pyri-midin-3-yl)-4-fluoro-2-hydroxybenzamide] are 0.779 µM, 1.34 µM and 0.135 µM.
Consider `CC1CN(C)CC(C)N1c1cc(NC(=O)Cn2cc(-c3cc(C(N)=O)c(O)c(F)c3F)c3c(=O)n4c(nc32)CCC4)c(Cl)cn1` (stereo not drawn) [I-21, 5-(1-(2-((5-chloro-2-(2,4,6-trimethyl-piperazin-1-yl)pyridin-4-yl)amino)-2-oxoethyl)-4-oxo-4,6,7,8-tetrahydro-1H-dipyrrolo[1,2-a:2′,3′-d]pyrimidin-3-yl)-3,4-difluoro-2-hydroxy-benzamide], for which, in the experiment with Karpas422 cells, the EC50 was 0.329 µM. For the same compound, the IC50 in experiment [1] came out at 0.355 µM. Moreover, the dissociation constant (Kd) in experiment [2] came to 0.0256 µM.

These data come from patent US11242351B2, “Tricyclic inhibitors of the BCL6 BTB domain protein-protein interaction and uses thereof” (priority 2017, dated 2022).
